Read-outs that look alike come from different tables or passages of the source.
Tests used:
PI3K α (p110α/p85α) = target: T1, PI3K α (p110α/p85α) (Homo sapiens, UniProt P42336); assay: PI3K α (p110α/p85α) inhibition assay; type: biochemical
T1 construct: purchased Upstate
Method: (§1) Class I PI3-Ks can be either purchased (p110α/p85α, p110β/p85α, p110δ/p85α from Upstate, and p110γ from Sigma) or expressed as previously described (Knight at al., 2004). IC50 values are measured using either a standard TLC assay for lipid kinase activity (described below) or a high-throughput membrane capture assay. Kinase reactions are performed by preparing a reaction mixture containing kinase, inhibitor (2% DMSO final concentration), buffer (25 mM HEPES, pH 7.4, 10 mM MgCl2), and freshly sonicated phosphatidylinositol (100 μg/ml). Reactions are initiated by the addition of ATP containing 10 μCi of γ-32P-ATP to a final concentration 10 or 100 μM and allowed to proceed for 5 minutes at room temperature. For TLC analysis, reactions are then terminated by the addition of 105 μl 1N HCl followed by 160 μl CHCl3:MeOH (1:1). The biphasic mixture is vortexed, briefly centrifuged, and the organic phase is transferred to a new tube using a gel loading pipette tip precoated with CHCl3. This extract is spotted on TLC plates and developed for 3-4 hours in a 65:35 solution of n-propanol: 1M acetic acid. The TLC plates are then dried, exposed to a phosphorimager screen (Storm, Amersham), and quantitated. For each compound, kinase activity is measured at 10-12 inhibitor concentrations representing two-fold dilutions from the highest concentration tested (typically, 200 μM).
(§2) Other commercial kits or systems for assaying PI3-K activities are avaiable. The commercially available kits or systems can be used to screen for inhibitors and/or agonists of PI3-Ks including but not limited to PI 3-Kinase α, β, δ, and γ. Anr exemplary system is PI 3-Kinase (human) HTRF™ Assay from Upstate. […] Briefly, the assay is a time resolved FRET assay that indirectly measures PIP3 product formed by the activity of a PI3-K. The kinase reaction is performed in a microtitre plate (e.g., a 384 well microtitre plate). The total reaction volume is approximately 20 ul per well. In the first step, each well receives 2 ul of test compound in 20% dimethylsulphoxide resulting in a 2% DMSO final concentration. Next, approximately 14.5 ul of a kinase/PIP2 mixture (diluted in 1× reaction buffer) is added per well for a final concentration of 0.25-0.3 ug/ml kinase and 10 uM PIP2. The plate is sealed and incubated for 15 minutes at room temperature. To start the reaction, 3.5 ul of ATP (diluted in 1× reaction buffer) is added per well for a final concentration of 10 uM ATP. The plate is sealed and incubated for 1 hour at room temperature. The reaction is stopped by adding 5 ul of Stop Solution per well and then 5 ul of Detection Mix is added per well. The plate is sealed, incubated for 1 hour at room temperature, and then read on an appropriate plate reader. Data is analyzed and IC50s are generated using GraphPad Prism 5.

mTOR = target: T2, mTOR (Homo sapiens, UniProt P42345); assay: mTOR inhibition assay; type: biochemical
T2 construct: purchased Invitrogen
Method: The compounds described herein can be tested against recombinant mTOR (Invitrogen) in an assay containing 50 mM HEPES, pH 7.5, 1 mM EGTA, 10 mM MgCl2, 2.5 mM, 0.01% Tween, 10 μM ATP (2.5 μCi of […]), and 3 μg/mL BSA. Rat recombinant PHAS-1/4EBP1 (Calbiochem; 2 mg/mL) is used as a substrate. Reactions are terminated by spotting onto nitrocellulose, which is washed with 1M NaCl/1% phosphoric acid (approximately 6 times, 5-10 minutes each). Sheets are dried and the transferred radioactivity quantitated by phosphorimaging.
Other kits or systems for assaying mTOR activity are commercially avaiable. For instance, one can use Invitrogen's LanthaScreen™ Kinase assay to test the inhibitors of mTOR disclosed herein. This assay is a time resolved FRET platform that measures the phosphorylation of GFP labeled 4EBP1 by mTOR kinase. The kinase reaction is performed in a white 384 well microtitre plate. The total reaction volume is 20 ul per well and the reaction buffer composition is 50 mM HEPES pH7.5, 0.01% Polysorbate 20, 1 mM EGTA, 10 mM MnCl2, and 2 mM DTT. In the first step, each well receives 2 ul of test compound in 20% dimethylsulphoxide resulting in a 2% DMSO final concentration. Next, 8 ul of mTOR diluted in reaction buffer is added per well for a 60 ng/ml final concentration. To start the reaction, 10 ul of an ATP/GFP-4EBP1 mixture (diluted in reaction buffer) is added per well for a final concentration of 10 uM ATP and 0.5 uM GFP-4EBP1. The plate is sealed and incubated for 1 hour at room temperature. The reaction is stopped by adding 10 ul per well of a Tb-anti-pT46 4EBP1 antibody/EDTA mixture (diluted in TR-FRET buffer) for a final concentration of 1.3 nM antibody and 6.7 mM EDTA. The plate is sealed, incubated for 1 hour at room temperature, and then read on a plate reader set up for LanthaScreen™ TR-FRET. Data is analyzed and IC50s are generated using GraphPad Prism 5.

PI3K β (p110β/p85α) = target: T3, PI3K β (p110β/p85α) (Homo sapiens, UniProt P42338); assay: PI3K β (p110β/p85α) inhibition assay; type: biochemical
T3 construct: purchased Upstate
Method: as §1, §2

PI3K γ (p110γ) = target: T4, PI3K γ (p110γ) (Homo sapiens, UniProt P48736); assay: PI3K γ (p110γ) inhibition assay; type: biochemical
T4 construct: purchased Sigma
Method: as §1, §2

PI3K δ (p110δ/p85α) = target: T5, PI3K δ (p110δ/p85α) (Homo sapiens, UniProt O00329); assay: PI3K δ (p110δ/p85α) inhibition assay; type: biochemical
T5 construct: purchased Upstate
Method: as §1, with “IC50” for “Class I PI3-Ks can be either purchased (p110α/p85α, p110β/p85α, p110δ/p85α from Upstate, and p110γ from Sigma) or expressed as previously described (Knight at al., 2004). IC50”, “quantitated.” for “quantitated. For each compound, kinase activity is measured at 10-12 inhibitor concentrations representing two-fold dilutions from the highest concentration tested (typically, 200 μM).”
as §2

PC-3 = assay: Tumor cell line proliferation assay (Alamar Blue), PC-3; type: cell-based; details: Homo sapiens; PC-3 cells
Method: The ability of one or more subject compounds to inhibit tumor cell line proliferation is determined according to standard procedures known in the art. For instance, an in vitro cellular proliferation assay can be performed to measure the metabolic activity of live cells. The assay is performed in a 96 well microtiter plate using Alamar Blue reduction. Human tumor cell lines are obtained from ATCC (e.g., MCF7, U-87 MG, MDA-MB-468, PC-3), grown to confluency in T75 flasks, trypsinized with 0.25% trypsin, washed one time with Tumor Cell Media (DMEM+10% FBS), and plated in 90 ul at 5,000 cells/well in Tumor Cell Media. A compound disclosed herein is diluted in Tumor Cell Media and added in a 10 ul volume. Plates are incubated for 72 hours at 37 C and 5% CO2. A volume of 10 uL of Alamar Blue reagent is added to each well and plates are incubated for 3 hours at 37 C and 5% CO2. Alamar Blue fluoresce is read at 560Ex/590Em, and IC50 values are calculated using GraphPad Prism 5.

T3 sequence (P42338 whole entry): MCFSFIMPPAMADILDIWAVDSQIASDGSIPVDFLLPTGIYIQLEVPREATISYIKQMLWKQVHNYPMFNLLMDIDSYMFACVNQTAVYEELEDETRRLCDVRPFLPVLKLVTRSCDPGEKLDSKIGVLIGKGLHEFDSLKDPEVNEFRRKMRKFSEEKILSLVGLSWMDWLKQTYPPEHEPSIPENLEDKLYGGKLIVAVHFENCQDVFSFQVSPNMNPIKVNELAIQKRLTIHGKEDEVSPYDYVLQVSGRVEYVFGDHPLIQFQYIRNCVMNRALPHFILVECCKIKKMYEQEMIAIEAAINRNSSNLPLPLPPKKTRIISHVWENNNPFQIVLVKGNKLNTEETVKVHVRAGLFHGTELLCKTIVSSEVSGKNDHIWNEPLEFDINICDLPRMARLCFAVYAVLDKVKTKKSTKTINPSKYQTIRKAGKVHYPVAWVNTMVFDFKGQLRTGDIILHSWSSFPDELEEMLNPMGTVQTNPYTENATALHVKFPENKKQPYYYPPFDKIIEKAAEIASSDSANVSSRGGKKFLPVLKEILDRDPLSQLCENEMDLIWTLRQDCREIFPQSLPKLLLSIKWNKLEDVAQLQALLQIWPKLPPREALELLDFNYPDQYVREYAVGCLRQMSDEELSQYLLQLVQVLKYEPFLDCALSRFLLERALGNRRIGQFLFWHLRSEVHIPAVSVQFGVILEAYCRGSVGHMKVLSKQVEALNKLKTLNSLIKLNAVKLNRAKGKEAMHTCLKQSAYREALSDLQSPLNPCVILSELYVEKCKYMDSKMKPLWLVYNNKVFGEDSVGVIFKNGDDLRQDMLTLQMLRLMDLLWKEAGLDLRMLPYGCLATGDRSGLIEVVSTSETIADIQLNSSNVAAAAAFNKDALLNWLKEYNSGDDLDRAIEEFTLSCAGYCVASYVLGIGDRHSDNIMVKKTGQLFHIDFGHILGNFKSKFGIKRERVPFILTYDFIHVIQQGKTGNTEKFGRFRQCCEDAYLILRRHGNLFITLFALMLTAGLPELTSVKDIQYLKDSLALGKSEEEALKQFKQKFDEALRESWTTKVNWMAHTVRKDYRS
T3 sequence (P27986 whole entry partner): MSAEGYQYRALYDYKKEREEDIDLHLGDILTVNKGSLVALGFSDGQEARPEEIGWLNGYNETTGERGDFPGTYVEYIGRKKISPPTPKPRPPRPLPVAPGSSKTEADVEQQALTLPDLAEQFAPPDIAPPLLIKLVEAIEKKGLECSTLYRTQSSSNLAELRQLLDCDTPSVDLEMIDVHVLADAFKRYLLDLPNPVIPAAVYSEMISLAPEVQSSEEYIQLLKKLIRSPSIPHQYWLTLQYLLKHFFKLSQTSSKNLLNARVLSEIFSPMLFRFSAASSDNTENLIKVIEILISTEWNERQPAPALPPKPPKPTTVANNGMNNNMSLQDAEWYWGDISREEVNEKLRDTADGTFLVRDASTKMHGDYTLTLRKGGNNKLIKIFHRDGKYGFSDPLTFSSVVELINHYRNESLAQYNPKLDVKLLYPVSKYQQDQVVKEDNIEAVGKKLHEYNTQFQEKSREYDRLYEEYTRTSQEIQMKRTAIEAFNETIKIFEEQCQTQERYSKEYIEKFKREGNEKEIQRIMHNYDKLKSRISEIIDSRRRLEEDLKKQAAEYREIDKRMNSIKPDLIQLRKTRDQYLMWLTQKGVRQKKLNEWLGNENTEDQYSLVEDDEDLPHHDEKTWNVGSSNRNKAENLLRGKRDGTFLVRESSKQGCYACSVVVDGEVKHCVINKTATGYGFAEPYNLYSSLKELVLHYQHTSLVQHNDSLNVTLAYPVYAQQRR
T4 sequence (P48736 whole entry): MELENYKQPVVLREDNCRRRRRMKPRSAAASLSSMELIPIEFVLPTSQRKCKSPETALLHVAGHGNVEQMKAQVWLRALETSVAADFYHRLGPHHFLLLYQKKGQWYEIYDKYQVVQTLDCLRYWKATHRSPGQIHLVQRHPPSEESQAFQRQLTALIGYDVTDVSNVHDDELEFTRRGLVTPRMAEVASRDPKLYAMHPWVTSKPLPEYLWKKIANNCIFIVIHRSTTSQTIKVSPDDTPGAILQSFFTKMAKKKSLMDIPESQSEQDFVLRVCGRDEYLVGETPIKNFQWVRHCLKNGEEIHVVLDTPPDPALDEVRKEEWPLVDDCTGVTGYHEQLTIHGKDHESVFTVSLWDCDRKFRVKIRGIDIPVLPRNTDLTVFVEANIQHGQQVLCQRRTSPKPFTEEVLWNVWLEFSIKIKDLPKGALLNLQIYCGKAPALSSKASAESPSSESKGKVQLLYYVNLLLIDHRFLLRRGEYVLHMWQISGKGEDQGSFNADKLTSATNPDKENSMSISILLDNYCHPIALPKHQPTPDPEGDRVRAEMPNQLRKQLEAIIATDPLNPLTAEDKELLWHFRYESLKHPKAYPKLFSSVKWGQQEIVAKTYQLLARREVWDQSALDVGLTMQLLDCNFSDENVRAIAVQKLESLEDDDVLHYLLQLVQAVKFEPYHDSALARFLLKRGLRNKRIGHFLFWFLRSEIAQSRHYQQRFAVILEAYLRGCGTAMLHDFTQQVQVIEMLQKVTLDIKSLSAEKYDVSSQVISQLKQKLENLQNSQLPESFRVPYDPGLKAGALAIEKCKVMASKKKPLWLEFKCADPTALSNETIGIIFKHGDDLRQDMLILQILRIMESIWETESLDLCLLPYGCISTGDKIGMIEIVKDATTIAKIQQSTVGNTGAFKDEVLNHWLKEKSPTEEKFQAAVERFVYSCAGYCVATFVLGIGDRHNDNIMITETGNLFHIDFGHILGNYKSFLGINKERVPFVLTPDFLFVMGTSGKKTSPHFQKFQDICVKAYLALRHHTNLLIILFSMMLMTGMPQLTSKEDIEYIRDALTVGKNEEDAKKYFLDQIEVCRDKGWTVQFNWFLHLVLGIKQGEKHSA
T1 sequence (P42336 whole entry): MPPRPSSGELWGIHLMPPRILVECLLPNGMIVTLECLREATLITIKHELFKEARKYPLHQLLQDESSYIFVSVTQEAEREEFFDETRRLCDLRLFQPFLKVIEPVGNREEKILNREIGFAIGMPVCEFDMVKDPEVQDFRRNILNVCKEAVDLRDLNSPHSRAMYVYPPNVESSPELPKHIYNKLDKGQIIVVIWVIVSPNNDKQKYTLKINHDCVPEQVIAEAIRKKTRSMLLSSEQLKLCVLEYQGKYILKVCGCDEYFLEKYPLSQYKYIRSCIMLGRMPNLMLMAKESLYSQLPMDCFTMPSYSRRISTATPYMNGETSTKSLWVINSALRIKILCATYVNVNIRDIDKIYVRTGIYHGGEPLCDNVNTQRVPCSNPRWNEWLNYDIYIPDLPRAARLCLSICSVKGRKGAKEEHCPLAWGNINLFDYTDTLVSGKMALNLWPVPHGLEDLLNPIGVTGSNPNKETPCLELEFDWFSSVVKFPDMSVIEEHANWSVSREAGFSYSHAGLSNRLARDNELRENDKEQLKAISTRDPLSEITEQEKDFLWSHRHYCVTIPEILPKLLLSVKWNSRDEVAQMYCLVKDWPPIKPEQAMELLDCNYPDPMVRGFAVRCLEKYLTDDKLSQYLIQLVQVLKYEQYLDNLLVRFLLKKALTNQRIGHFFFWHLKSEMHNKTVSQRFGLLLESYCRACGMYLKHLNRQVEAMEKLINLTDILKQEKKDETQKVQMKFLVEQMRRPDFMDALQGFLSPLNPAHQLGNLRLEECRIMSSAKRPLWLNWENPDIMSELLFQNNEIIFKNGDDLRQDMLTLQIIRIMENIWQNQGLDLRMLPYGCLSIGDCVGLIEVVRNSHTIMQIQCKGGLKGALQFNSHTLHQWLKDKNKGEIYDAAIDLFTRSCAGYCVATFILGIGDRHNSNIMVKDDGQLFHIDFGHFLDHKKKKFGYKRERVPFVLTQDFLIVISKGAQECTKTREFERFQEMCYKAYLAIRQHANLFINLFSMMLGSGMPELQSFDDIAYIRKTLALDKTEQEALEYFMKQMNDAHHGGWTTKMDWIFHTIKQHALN
T1 sequence (P27986 whole entry partner): as the sequence (P27986 whole entry partner) above
T5 sequence (O00329 whole entry): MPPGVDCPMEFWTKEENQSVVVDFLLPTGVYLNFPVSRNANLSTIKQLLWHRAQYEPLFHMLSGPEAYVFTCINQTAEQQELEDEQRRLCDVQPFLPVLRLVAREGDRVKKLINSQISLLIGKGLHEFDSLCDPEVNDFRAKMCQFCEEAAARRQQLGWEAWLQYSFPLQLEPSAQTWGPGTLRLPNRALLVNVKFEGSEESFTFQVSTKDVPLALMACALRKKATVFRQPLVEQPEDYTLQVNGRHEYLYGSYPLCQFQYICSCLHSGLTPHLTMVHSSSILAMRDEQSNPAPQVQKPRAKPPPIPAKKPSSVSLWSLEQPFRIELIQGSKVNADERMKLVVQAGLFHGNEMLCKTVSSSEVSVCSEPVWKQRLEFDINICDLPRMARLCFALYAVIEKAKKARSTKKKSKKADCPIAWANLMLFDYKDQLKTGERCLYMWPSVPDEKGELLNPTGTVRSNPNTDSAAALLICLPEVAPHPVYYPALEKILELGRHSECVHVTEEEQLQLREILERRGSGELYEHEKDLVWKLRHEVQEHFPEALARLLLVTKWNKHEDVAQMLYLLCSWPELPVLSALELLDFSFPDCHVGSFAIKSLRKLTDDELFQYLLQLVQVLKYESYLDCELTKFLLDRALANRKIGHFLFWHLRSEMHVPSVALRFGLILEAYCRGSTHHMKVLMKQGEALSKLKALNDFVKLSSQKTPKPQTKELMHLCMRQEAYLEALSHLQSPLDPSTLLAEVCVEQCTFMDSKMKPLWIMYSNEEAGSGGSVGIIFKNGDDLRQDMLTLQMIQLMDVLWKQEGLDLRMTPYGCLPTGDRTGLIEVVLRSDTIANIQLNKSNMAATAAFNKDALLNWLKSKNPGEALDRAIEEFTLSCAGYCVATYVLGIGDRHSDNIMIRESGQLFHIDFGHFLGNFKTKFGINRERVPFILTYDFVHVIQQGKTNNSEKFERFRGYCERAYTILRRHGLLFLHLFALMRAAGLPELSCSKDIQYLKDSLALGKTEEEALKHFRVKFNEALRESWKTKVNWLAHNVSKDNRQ
T5 sequence (P27986 whole entry partner): as the sequence (P27986 whole entry partner) above

In the case of CNc1nc(C)c2cc(-c3cc(O)cc(F)c3)ccc2n1 [Compound 8], the IC50 (PI3K α (p110α/p85α)) is reported as under 500 nM, the IC50 (mTOR) is reported as over 1000 nM and the IC50 (PI3K β (p110β/p85α)) is reported as under 1000 nM. For the same compound, the IC50 (PI3K γ (p110γ)) was under 100 nM, the IC50 (PI3K δ (p110δ/p85α)) was under 100 nM and the EC50 (PC-3) was at most 20000 nM.
Compound Cc1nc(N)nc2ccc(-c3cnc4[nH]ccc4c3)cc12 [Compound 5] has an IC50 (PI3K α (p110α/p85α)) of under 1000 nM, an IC50 (mTOR) of over 1000 nM and an EC50 (PC-3) of at most 50000 nM.
With Cc1nc(N)nc2ccc(-c3cccc(O)c3)cc12 [Compound 4] the IC50 (PI3K α (p110α/p85α)) was under 500 nM, the IC50 (mTOR) was over 1000 nM and the IC50 (PI3K β (p110β/p85α)) was under 500 nM. It also gave an IC50 (PI3K γ (p110γ)) of under 100 nM, an IC50 (PI3K δ (p110δ/p85α); read-out: PI3K δ IC50) of under 100 nM and an EC50 (PC-3) of at most 20000 nM.
Compound Nc1ncc2cc(-c3cccc(O)c3)ccc2n1 [Compound 3] has an IC50 (PI3K α (p110α/p85α)) of under 500 nM, an IC50 (mTOR) of over 1000 nM and an EC50 (PC-3) of at most 50000 nM.
Work on Cc1nc(Nc2cccnc2)nc2ccc(-c3cc(O)cc(F)c3)cc12 [Compound 7] yielded an IC50 (PI3K α (p110α/p85α)) of under 100 nM, an IC50 (mTOR) of over 1000 nM and an IC50 (PI3K β (p110β/p85α)) of over 1000 nM. The IC50 (PI3K γ (p110γ)) was under 100 nM, the IC50 (PI3K δ (p110δ/p85α); read-out: PI3K δ IC50) was under 100 nM and the EC50 (PC-3) was at most 20000 nM.
With CNc1nc(C)c2cc(-c3ccc(O)c(Cl)c3)ccc2n1 [Compound 10] the IC50 (PI3K α (p110α/p85α)) was under 1000 nM, the IC50 (mTOR) was over 1000 nM and the EC50 (PC-3) was at most 20000 nM.
Work on CNc1nc(C)c2cc(-c3ccc(F)c(O)c3)ccc2n1 [Compound 9] yielded an IC50 (PI3K α (p110α/p85α)) of under 1000 nM, an IC50 (mTOR) of over 1000 nM and an EC50 (PC-3) of at most 20000 nM.
CNc1nc(C)c2cc(-c3cccc(O)c3)ccc2n1 [Compound 1] gave an IC50 (PI3K α (p110α/p85α)) of under 500 nM, an IC50 (mTOR) of over 1000 nM and an IC50 (PI3K β (p110β/p85α)) of over 1000 nM. The IC50 (PI3K γ (p110γ)) was under 100 nM, the IC50 (PI3K δ (p110δ/p85α); read-out: PI3K δ IC50) was under 500 nM and the EC50 (PC-3) was at most 50000 nM.
For CNc1nc(C)c2cc(-c3ccc(O)c(F)c3)ccc2n1 [Compound 11], the IC50 (PI3K α (p110α/p85α)) was under 1000 nM, the IC50 (mTOR) was over 1000 nM and the EC50 (PC-3) was at most 50000 nM.
CNc1nc(C)c2cc(-c3cnc4[nH]ccc4c3)ccc2n1 [Compound 2] was tested, and the IC50 (PI3K α (p110α/p85α)) was under 1000 nM, the IC50 (mTOR) was over 1000 nM and the IC50 (PI3K β (p110β/p85α)) was over 1000 nM. It also gave an IC50 (PI3K γ (p110γ)) of under 500 nM, an IC50 (PI3K δ (p110δ/p85α); read-out: PI3K δ IC50) of over 1000 nM and an EC50 (PC-3) of at most 50000 nM.
Work on Cc1nc(Nc2cccnc2)nc2ccc(-c3cccc(O)c3)cc12 [Compound 6] yielded an IC50 (PI3K α (p110α/p85α)) of under 100 nM, an IC50 (mTOR) of over 1000 nM and an IC50 (PI3K β (p110β/p85α)) of over 1000 nM. The IC50 (PI3K γ (p110γ)) was under 100 nM, the IC50 (PI3K δ (p110δ/p85α); read-out: PI3K δ IC50) was under 100 nM and the EC50 (PC-3) was at most 50000 nM.

— patent publication US9359349B2, “Substituted quinazolines as kinase inhibitors” (Intellikine LLC, priority 2007, dated 2016)
